{"source": "patent US8946294B2", "about": "“Crystalline diacylhydrazine and the use thereof” (Intrexon Corporation, priority 2011, dated 2015)", "key": {"[1]": {"assay": "Dynamic vapor sorption (DVS) hygroscopicity", "format": "physicochemical", "conditions": "for water content gained: from 0% relative humidity to 85% r.h.", "from_the_text": "Projekt Messtechnik SPS11-100n multi-sample water vapor sorption analyzer or Surface Measurement Systems Ltd. DVS-1 water vapour sorption analyzer. The sample was allowed to equilibrate at 50% r.h. before starting a pre-defined humidity program.\nProgram: 50% r.h.→0% r.h.→95% r.h.→50% r.h., Δr.h.=5%/h\nHygroscopicity was classified as follows: • deliquescent sufficient water is absorbed to form a liquid • very hygroscopic increase of the mass is ≧15% • hygroscopic increase of the mass is less than 15% and greater than or equal to 2% • slightly hygroscopic increase of the mass is less than 2% and greater than or equal to 0.2% • not hygroscopic increase of the mass is less than 0.2% Thermogravimetry Coupled to Fourier-Transform Infrared Spectroscopy (TG-FTIR): […]"}, "[2]": {"assay": "Mechanical stability (IR press and grinding, PXRD)", "format": "physicochemical", "conditions": "pressed with 10 metric tons for 30 min; vigorously ground", "protocol": "(§1) Two types of experiments elucidated the mechanical stability of Compound 1 Form II. First, about 200 mg of Form II was pressed in an IR press with a force of 10 metric tons (13 mm diameter of pellet) for 30 min. The resulting pellets were analyzed by PXRD. Second, about 150 mg of Form II was vigorously ground and analyzed by PXRD.\nas §1, with “1 Form III. First, about” for “1 Form II. First, about”, “of Form III was vigorously” for “of Form II was vigorously”"}, "[3]": {"assay": "Storage under CO2 atmosphere and 75-76% relative humidity", "format": "physicochemical", "conditions": "open container, 1 month; for hydrate (Form IV) or CO2 adduct formation: 1 bar CO2, 75-76% relative humidity; for Form after storage: 1 bar CO2, over saturated NaCl solution (75-76% relative humidity)"}, "[4]": {"assay": "Suspension equilibration of Form I-A in non-solvate forming solvents", "format": "physicochemical", "conditions": "at 5° C. and room temperature", "protocol": "109 mg of Compound 1 Form I-A was suspended in 2.0 mL of cyclohexane and sonicated. After stirring for 14 days at room temperature, the solid was collected by filtration and dried under vacuum for 30 minutes to give Form III.\n105 mg of Compound 1 Form I-A was suspended in 0.7 mL of 3:2 (v/v) n-heptane/toluene and sonicated. After stirring for 16 days at 5° C., the solid was collected by filtration and dried under vacuum for 30 minutes to give Form III.\n102 mg of Compound 1 Form I-A was suspended in 0.7 mL of 10:1 (v/v) n-heptane/toluene and sonicated. After stirring for 16 days at 5° C., the solid was collected by filtration and dried under vacuum for 30 minutes to give Form III.\n115 mg of Compound 1 Form I-A was suspended in 0.7 mL of 1:10 (v/v) n-heptane/toluene and sonicated. After stirring for 16 days at 5° C., the solid was collected by filtration and dried under vacuum for 30 minutes to give Form III."}, "[5]": {"assay": "Solvent-based stability tests in water/methanol", "format": "physicochemical", "conditions": "for Relative stability of polymorphic forms: all three temperatures (25, 45, 55° C.); for Form: 6:4 MeOH:water, at least three days", "from_the_text": "A mixture of Compound 1 Forms II, III, IV, and V was slurried in various compositions of methanol/water, or in water, for at least three days at different temperatures."}, "[6]": {"assay": "Solid state stability at 60-65° C.", "format": "physicochemical", "conditions": "closed cap vial", "protocol": "Compound 1 Form II, Compound 1 Form III, and compound 1 Form IV were stored at 60-65° C. in a closed cap vial for various lengths of time. Compound 1 Forms II and III remained unchanged under these conditions. Compound 1 Form IV is converted to a mixture of Forms II and III after 10 days at 60-65C."}, "[7]": {"assay": "Reinvestigation of Form IX sample by PXRD and FT-Raman", "format": "physicochemical", "conditions": "PXRD and FT-Raman spectroscopy", "protocol": "198 mg of Compound 1 Form I-A was dissolved in 0.2 mL acetone and 2.0 mL of cyclohexane. The solution was stirred at 5° C. for 4 hours than evaporated at 5° C. for 2 hours to obtain a precipitate. The precipitate was collected by filtration and dried under vacuum for 1 hour to give Form IX (FIGS. 29 and 30). […] The sample was likely incompletely dried but might also correspond to a cyclohexane solvate."}, "[8]": {"assay": "Solvent-based stability tests in n-heptane/toluene", "format": "physicochemical", "conditions": "3:2 (v/v) n-heptane:toluene, 6 days", "protocol": "The thermodynamic stability of Form II and Form III as a function of temperature was investigated by suspension equilibration experiments.\n54.6 mg of Compound 1 Form III and 61.2 mg of Compound 1 Form II were suspended in […] of 3:2 (v/v) n-heptane:toluene and sonicated. […] In this experiment the starting material likely took up ambient humidity to give Form IV.\n18.5 mg of Compound 1 Form III and 28.0 mg of Compound 1 Form II were suspended in 0.4 mL of 3:2 (v/v) n-heptane:toluene and sonicated. After stirring at 60° C. for 6 days the solid was collected by filtration to give Form II.\n35.4 mg of Compound 1 Form III and 46.1 mg of Compound 1 Form II were suspended in 0.4 mL of 3:2 (v/v) n-heptane:toluene and sonicated.\n40.5 mg of Compound 1 Form III and 45.7 mg of Compound 1 Form II were suspended in 0.4 mL of 3:2 (v/v) n-heptane:toluene and sonicated. After stirring at 55° C. for 6 days the solid was collected by filtration to give Form II.\nThe solvent-based experiments are in principle thermodynamic stability tests between Compound 1 Forms II and III because mixtures of both forms were suspended. Below 45° C. […] Above 55° C. […] At 50° C. a mixture of both Form II and Form III was obtained in 3:2 (v/v) n-heptane:toluene. This is not unexpected. Close to the transition temperature, the thermodynamic driving force would be expected to be very small leading to slow transition rates. Possibly the kinetics of transformation were too slow for the transformation to occur on the timescale of the experiment. According to these suspension equilibration experiments, Form II and Form III are enantiotropic polymorphs. The thermodynamic transition temperature between Form II and Form III is between 45° C. and 55° C."}, "[9]": {"assay": "Solvent-based stability tests in n-heptane/ethanol", "format": "physicochemical", "conditions": "95:5 heptane:ethanol", "protocol": "Compound 1 Form II, Compound I Form III, or a mixture of Compound 1 Forms II and III were slurried in 95:5 heptane:ethanol (anhydrous). After one day at various temperatures, a portion of the slurry was filtered and analyzed by XRPD. A solution mediated transition occurs at 45-47° C. in 95:5 heptane:ethanol. Below 45° C."}, "[10]": {"target": "C. fumiferana EcR (CfEcR-DEF) (Choristoneura fumiferana, UniProt O77240)", "assay": "Cellular gene-switch assay, WT-Cf EcR, luciferase reporter", "format": "cell-based", "conditions": "NIH3T3 cells", "protocol": "(§2) Cellular gene-switch assays were performed by transfecting the following constructs in mouse embryonic fibroblast cells (NIH3T3). The wild-type D-, E-, and F-domains from a) C. fumiferana EcR (CfEcR-DEF), and b) C. fumiferana EcR with a E274V/V390I/Y410E mutation (VY-CfEcR-DEF), were fused to a GAL4-DBD and placed under the control of the CMV promoter in a pBIND vector (Promega Corporation, Madison, Wis., USA). A chimeric RXR from Homo sapiens RXRb and Locusta migratoria RXR fused to VP16-AD and under the control of an SV40e promoter has previously described. (See, Kothapalli et al., Dev. Genet. 17:319-330 (1995); Palli, et al., FEBS J. 272:5979-5990 (2005); and U.S. Pat. No. 7,935,510 B2). The inducible luciferase reporter plasmid, pFRLuc, (Stratagene Cloning Systems, La Jolla, Calif., USA) contains five copies of the GAL4 response element and a synthetic minimal promoter.\n(§3) Under standard assay conditions, Compound 1 was tested at 8 doses from 0.01-33 μM and the final DMSO concentration was 0.33% in both control and treatment wells. When necessary, Compound 1 was tested at lower concentrations. After a 48-hour post-treatment and transfection incubation, the cells were assayed for luciferase activity using the Bright-GloTM Luciferase Assay System (Promega Corporation, Madison, Wis., USA) following the manufacturer's instructions. […]"}, "[11]": {"target": "C. fumiferana EcR with a E274V/V390I/Y410E mutation (VY-CfEcR-DEF) (Choristoneura fumiferana, UniProt O77240)", "assay": "Cellular gene-switch assay, VY-Cf EcR, luciferase reporter", "format": "cell-based", "conditions": "NIH3T3 cells", "protocol": "as §2, §3"}, "[12]": {"conditions": "48-hour incubation, luciferase activity"}, "[13]": {"conditions": "maximum fold induction relative to a positive control"}}}
{"molecule": "CCC[C@@H](N(NC(=O)c1cccc(OC)c1CC)C(=O)c1cc(C)cc(C)c1)C(C)(C)C", "note": "[Compound 1 Form II, (R)-3,5-dimethyl-benzoic acid N-(1-tert-butyl-butyl)-N′-(2-ethyl-3-methoxy-benzoyl)-hydrazide]", "values": [{"measurement": "Hygroscopicity (DVS)", "setting": "[1]", "value": "non- to slightly-hygroscopic"}, {"measurement": "water content gained", "setting": "[1]", "value": 0.1, "unit": "wt.-%"}, {"measurement": "Change in crystalline form after mechanical treatment (PXRD)", "setting": "[2]", "value": "no change in crystalline form"}, {"measurement": "hydrate (Form IV) or CO2 adduct formation", "setting": "[3]", "value": "no indication of hydrate (Form IV) or CO2 adduct formation"}, {"measurement": "Form after storage", "setting": "[3]", "value": "unchanged Form II"}]}
{"molecule": "CCC[C@@H](N(NC(=O)c1cccc(OC)c1CC)C(=O)c1cc(C)cc(C)c1)C(C)(C)C", "note": "[Compound 1 Form III, (R)-3,5-dimethyl-benzoic acid N-(1-tert-butyl-butyl)-N′-(2-ethyl-3-methoxy-benzoyl)-hydrazide]", "values": [{"measurement": "Hygroscopicity (DVS)", "setting": "[1]", "value": "non- to slightly-hygroscopic"}, {"measurement": "water content gained", "setting": "[1]", "value": 0.1, "unit": "wt.-%"}, {"measurement": "Change in crystalline form after mechanical treatment (PXRD)", "setting": "[2]", "value": "no change in crystalline form"}, {"measurement": "Relative stability of forms", "setting": "[4]", "value": "more stable than Form II"}, {"measurement": "hydrate (Form IV) or CO2 adduct formation", "setting": "[3]", "value": "no indication of hydrate (Form IV) or CO2 adduct formation"}, {"measurement": "Form after storage", "setting": "[3]", "value": "unchanged Form III"}]}
{"molecule": "CCC[C@@H](N(NC(=O)c1cccc(OC)c1CC)C(=O)c1cc(C)cc(C)c1)C(C)(C)C", "note": "[Compound 1 Form IV, (R)-3,5-dimethyl-benzoic acid N-(1-tert-butyl-butyl)-N′-(2-ethyl-3-methoxy-benzoyl)-hydrazide]", "values": [{"measurement": "Relative stability of polymorphic forms", "setting": "[5]; methanol content of less than 60% volume", "value": "most stable polymorphic form"}, {"measurement": "Form after storage", "setting": "[6]; 3 days", "value": "II, III, and IV"}, {"measurement": "Form after storage", "setting": "[6]; 10 days", "value": "II and III"}, {"measurement": "Form after storage", "setting": "[6]; 18 days", "value": "II and III"}]}
{"molecule": "CCC[C@@H](N(NC(=O)c1cccc(OC)c1CC)C(=O)c1cc(C)cc(C)c1)C(C)(C)C", "note": "[Compound 1 Form IX, (R)-3,5-dimethyl-benzoic acid N-(1-tert-butyl-butyl)-N′-(2-ethyl-3-methoxy-benzoyl)-hydrazide]", "values": [{"measurement": "Form on reinvestigation of the sample", "setting": "[7]", "value": "spontaneously transformed into Form II"}]}
{"molecule": "CCC[C@@H](N(NC(=O)c1cccc(OC)c1CC)C(=O)c1cc(C)cc(C)c1)C(C)(C)C", "note": "[Compound 1 Form V, (R)-3,5-dimethyl-benzoic acid N-(1-tert-butyl-butyl)-N′-(2-ethyl-3-methoxy-benzoyl)-hydrazide]", "values": [{"measurement": "Relative stability of polymorphic forms", "setting": "[5]; methanol content of more than 60% volume", "value": "most stable polymorphic form"}]}
{"molecule": "CCC[C@@H](N(NC(=O)c1cccc(OC)c1CC)C(=O)c1cc(C)cc(C)c1)C(C)(C)C", "note": "[Compound 1 Forms II and III, (R)-3,5-dimethyl-benzoic acid N-(1-tert-butyl-butyl)-N′-(2-ethyl-3-methoxy-benzoyl)-hydrazide]", "values": [{"measurement": "Form obtained", "setting": "[8]; 45° C.", "value": "mixture of Form III and Form IV"}, {"measurement": "Form obtained", "setting": "[8]; 50° C.", "value": "mixture of Form II and Form III"}, {"measurement": "Form obtained", "setting": "[8]; 55° C.", "value": "Form II"}, {"measurement": "Form obtained", "setting": "[8]; 60° C.", "value": "Form II"}, {"measurement": "solution mediated transition temperature", "setting": "[9]", "value": "45-47 °C"}]}
{"molecule": "CCC[C@@H](N(NC(=O)c1cccc(OC)c1CC)C(=O)c1cc(C)cc(C)c1)C(C)(C)C", "note": "[Compound 1 Forms II, III, IV, and V, (R)-3,5-dimethyl-benzoic acid N-(1-tert-butyl-butyl)-N′-(2-ethyl-3-methoxy-benzoyl)-hydrazide]", "values": [{"measurement": "Form", "setting": "[5]; 45° C.", "value": "IV and V"}, {"measurement": "Form", "setting": "[5]; 55° C.", "value": "IV and V"}]}
{"molecule": "CCC[C@@H](N(NC(=O)c1cccc(OC)c1CC)C(=O)c1cc(C)cc(C)c1)C(C)(C)C", "note": "[Compound 1, (R)-3,5-dimethyl-benzoic acid N-(1-tert-butyl-butyl)-N′-(2-ethyl-3-methoxy-benzoyl)-hydrazide]", "values": [{"measurement": "EC50", "setting": "[10]; [12]", "value": 1.8, "unit": "nM"}, {"measurement": "Rel Max FI", "setting": "[10]; [13]", "value": 0.99}, {"measurement": "EC50", "setting": "[11]; [12]", "value": 0.133, "unit": "nM"}, {"measurement": "Rel Max FI", "setting": "[11]; [13]", "value": 0.88}]}
